How the values were obtained:
[1] = biological target: T1, Endothelin receptor type B (Homo sapiens, UniProt P24530); assay: Inhibitory concentration required against [125I]ET1 binding to membranes of CHO cells expressing human ETB receptor; format: cell membranes
T1 sequence (P24530 whole entry): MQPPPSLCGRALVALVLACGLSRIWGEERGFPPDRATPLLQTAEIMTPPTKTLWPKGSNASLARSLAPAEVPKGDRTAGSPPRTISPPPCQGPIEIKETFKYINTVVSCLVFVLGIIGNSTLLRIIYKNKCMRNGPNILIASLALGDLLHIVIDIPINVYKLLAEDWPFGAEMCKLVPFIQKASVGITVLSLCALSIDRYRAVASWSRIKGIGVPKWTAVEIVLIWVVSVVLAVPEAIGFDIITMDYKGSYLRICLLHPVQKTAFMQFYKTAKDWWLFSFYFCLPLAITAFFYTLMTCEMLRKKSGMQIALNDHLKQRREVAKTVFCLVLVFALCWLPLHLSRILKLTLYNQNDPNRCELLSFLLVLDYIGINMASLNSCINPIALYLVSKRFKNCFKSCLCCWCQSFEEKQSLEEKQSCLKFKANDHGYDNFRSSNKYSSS

[2] = biological target: T2, Endothelin receptor type B (Rattus norvegicus, UniProt P21451); assay: In vitro inhibitory potency for preventing sarafotoxin S6c induced constriction of rat tracheal rings (ETB receptor); format: functional, tissue-based, Trachea; conditions: read-out: pA2 (converted)
T2 sequence (P21451 whole entry): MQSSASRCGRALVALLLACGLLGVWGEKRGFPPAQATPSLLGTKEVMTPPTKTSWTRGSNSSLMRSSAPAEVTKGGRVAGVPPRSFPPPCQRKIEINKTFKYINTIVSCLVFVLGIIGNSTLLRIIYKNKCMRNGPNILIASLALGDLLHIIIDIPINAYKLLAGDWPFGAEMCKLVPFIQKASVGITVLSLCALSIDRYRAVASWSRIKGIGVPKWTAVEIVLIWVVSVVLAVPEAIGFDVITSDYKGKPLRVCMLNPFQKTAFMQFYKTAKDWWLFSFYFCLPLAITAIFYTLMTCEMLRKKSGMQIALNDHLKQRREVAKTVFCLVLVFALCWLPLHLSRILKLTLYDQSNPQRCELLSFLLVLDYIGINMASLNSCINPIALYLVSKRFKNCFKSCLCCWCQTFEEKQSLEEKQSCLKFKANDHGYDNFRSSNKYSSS

Endothelin-1 receptor [3] = biological target: T3, Endothelin-1 receptor (Homo sapiens, UniProt P25101); assay: Inhibitory concentration required against [125I]ET1 binding to membranes of CHO cells expressing human ETA receptor; format: cell membranes
T3 sequence (P25101 whole entry): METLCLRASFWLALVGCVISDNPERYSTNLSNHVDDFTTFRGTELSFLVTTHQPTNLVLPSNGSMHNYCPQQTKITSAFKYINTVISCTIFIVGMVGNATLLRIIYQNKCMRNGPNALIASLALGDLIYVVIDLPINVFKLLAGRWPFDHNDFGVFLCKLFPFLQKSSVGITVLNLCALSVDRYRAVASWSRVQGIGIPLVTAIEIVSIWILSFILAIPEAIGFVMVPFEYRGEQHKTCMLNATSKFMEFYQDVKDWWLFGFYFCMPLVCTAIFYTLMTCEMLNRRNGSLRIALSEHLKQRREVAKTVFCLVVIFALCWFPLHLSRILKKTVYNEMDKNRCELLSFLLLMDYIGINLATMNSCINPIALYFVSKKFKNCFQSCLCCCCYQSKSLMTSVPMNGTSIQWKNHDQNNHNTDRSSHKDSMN

Endothelin-1 receptor [4] = biological target: T4, Endothelin-1 receptor (Rattus norvegicus, UniProt P26684); assay: In vitro inhibitory potency for preventing ET-1 induced constriction of rat aortic rings (ETA receptor); format: functional; conditions: read-out: pA2 (converted)
T4 sequence (P26684 whole entry): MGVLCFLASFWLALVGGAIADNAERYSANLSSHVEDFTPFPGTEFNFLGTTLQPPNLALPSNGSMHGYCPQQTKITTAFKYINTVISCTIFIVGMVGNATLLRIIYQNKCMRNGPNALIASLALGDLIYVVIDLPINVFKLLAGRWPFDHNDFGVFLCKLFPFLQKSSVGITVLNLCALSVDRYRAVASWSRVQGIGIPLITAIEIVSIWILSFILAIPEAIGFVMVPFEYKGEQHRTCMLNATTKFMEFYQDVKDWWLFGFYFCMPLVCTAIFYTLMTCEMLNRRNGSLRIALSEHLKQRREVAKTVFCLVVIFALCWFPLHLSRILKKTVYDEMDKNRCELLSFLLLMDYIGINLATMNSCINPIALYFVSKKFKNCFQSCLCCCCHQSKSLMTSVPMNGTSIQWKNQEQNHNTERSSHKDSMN

Structure (SMILES) | IC50 [1] | IC50 (Endothelin-1 receptor [3]) | Kb [2] | Kb (Endothelin-1 receptor [4])
CCCS(=O)(=O)NCCOc1nc(C2CC2)nc(NS(=O)(=O)c2ccc(C(C)C)cn2)c1Oc1ccccc1OC | 84 nM | 80 nM | 363 nM | 288 nM
COc1ccccc1Oc1c(NS(=O)(=O)c2ccc(C(C)(C)C)cc2)nc(-c2ncccn2)nc1OCCNS(=O)(=O)c1cccs1 | 16 nM |  |  | 
CCS(=O)(=O)NCCOc1nc(C2CC2)nc(NS(=O)(=O)c2ccc(C(C)C)cn2)c1Oc1ccccc1OC | 397 nM | 50 nM | 269 nM | 347 nM
COc1ccccc1Oc1c(NS(=O)(=O)c2ccc(C(C)C)cn2)nc(-c2cc(OC)c(OC)c(OC)c2)nc1OCCNS(=O)(=O)c1ccc(C)cc1 | 4 nM |  |  | > 10000 nM
CCCS(=O)(=O)NCCOc1nc(-c2cc(OC)c(OC)c(OC)c2)nc(NS(=O)(=O)c2ccc(C(C)C)cn2)c1Oc1ccccc1OC | 24 nM |  | 33.1 nM | 3160 nM
CCCS(=O)(=O)NCCCOc1nc(C2CC2)nc(NS(=O)(=O)c2ccc(C(C)C)cn2)c1Oc1ccccc1OC |  |  | 69.2 nM | 245 nM
CCS(=O)(=O)NCCCOc1nc(C2CC2)nc(NS(=O)(=O)c2ccc(C(C)C)cn2)c1Oc1ccccc1OC |  |  | 269 nM | 105 nM
COc1ccccc1Oc1c(NS(=O)(=O)c2ccc(C(C)(C)C)cc2)nc(-c2ncccn2)nc1OCCCNS(=O)(=O)c1cccs1 | 4 nM | 86 nM |  | 
COc1ccccc1Oc1c(NS(=O)(=O)c2ccc(C(C)C)cn2)nc(-c2cc(OC)c(OC)c(OC)c2)nc1OCCNS(=O)(=O)c1cccs1 | 7 nM |  | 38.9 nM | 
COc1ccccc1Oc1c(NS(=O)(=O)c2ccc(C)cn2)nc(-c2cc(OC)c(OC)c(OC)c2)nc1OCCNS(=O)(=O)c1cccs1 | 351 nM | 2770 nM |  | 
COc1ccccc1Oc1c(NS(=O)(=O)c2ccc(C(C)C)cn2)nc(C2CC2)nc1OCCCNS(=O)(=O)c1ccc(C)cc1 | 19 nM |  | 49 nM | 309 nM
COc1ccccc1Oc1c(NS(=O)(=O)c2ccc(C(C)C)cn2)nc(C2CC2)nc1OCCCNS(=O)(=O)c1cccs1 | 4 nM |  | 9.12 nM | 120 nM
COc1ccccc1Oc1c(NS(=O)(=O)c2ccc(C(C)C)cn2)nc(N2CCOCC2)nc1OCCCNS(=O)(=O)c1ccc(C)cc1 | 24 nM | 116 nM | 107 nM | 4790 nM
CCCS(=O)(=O)NCCOc1nc(N2CCOCC2)nc(NS(=O)(=O)c2ccc(C(C)C)cn2)c1Oc1ccccc1OC |  |  | 240 nM | 832 nM

The next lines start with results.

IC50 [1] | IC50 (Endothelin-1 receptor [3]) | Structure (SMILES) | Kb [2] | Kb (Endothelin-1 receptor [4])
873 nM | 487 nM | CCS(=O)(=O)NCCOc1nc(-c2ncccn2)nc(NS(=O)(=O)c2ccc(C(C)(C)C)cc2)c1Oc1ccccc1OC |  | 
2 nM | 14 nM | COc1ccccc1Oc1c(NS(=O)(=O)c2ccc(C(C)(C)C)cc2)nc(C2CC2)nc1OCCCNS(=O)(=O)c1cccs1 |  | 
8240 nM | 1850 nM | COc1ccccc1Oc1c(NS(=O)(=O)c2ccc(C)cn2)nc(C2CC2)nc1OCCNS(=O)(=O)c1cccs1 |  | 
4670 nM | 1320 nM | CCCS(=O)(=O)NCCOc1nc(C2CC2)nc(NS(=O)(=O)c2ccc(C)cn2)c1Oc1ccccc1OC |  | 
1540 nM |  | COc1ccccc1Oc1c(NS(=O)(=O)c2ccc(C)cn2)nc(-c2ccncc2)nc1OCCNS(=O)(=O)c1ccc(C)cc1 |  | 
101 nM | 1590 nM | CCS(=O)(=O)NCCCOc1nc(-c2ncccn2)nc(NS(=O)(=O)c2ccc(C(C)(C)C)cc2)c1Oc1ccccc1OC |  | 
3680 nM | 2840 nM | COc1ccccc1Oc1c(NS(=O)(=O)c2ccc(C)cn2)nc(-c2ccncc2)nc1OCCNS(=O)(=O)c1cccs1 |  | 
9 nM | 1380 nM | COc1ccccc1Oc1c(NS(=O)(=O)c2ccc(C(C)C)cn2)nc(N2CCOCC2)nc1OCCNS(=O)(=O)c1ccc(C)cc1 |  | 
122 nM | 19 nM | CCS(=O)(=O)NCCOc1nc(N2CCOCC2)nc(NS(=O)(=O)c2ccc(C(C)C)cn2)c1Oc1ccccc1OC |  | 
5660 nM | 582 nM | CCS(=O)(=O)NCCOc1nc(C2CC2)nc(NS(=O)(=O)c2ccc(C)cn2)c1Oc1ccccc1OC |  | 
931 nM | 51 nM | CCCS(=O)(=O)NCCOc1nc(N2CCOCC2)nc(NS(=O)(=O)c2ccc(C)cn2)c1Oc1ccccc1OC |  | 
2110 nM |  | COc1ccccc1Oc1c(NS(=O)(=O)c2ccc(C)cn2)nc(Cc2ccc3c(c2)OCO3)nc1OCCNS(=O)(=O)c1cccs1 |  | 

Reference: ChEMBL document CHEMBL1136631, “Bis-sulfonamides as endothelin receptor antagonists” (Bioorg Med Chem Lett, 2003)
